Test results reported in patent US20230095021A1, “MODULATORS OF TDP-43” (Alteron Therapeutics, Inc., priority 2019, published 2023).

What was measured:
ApoA2 pre-mRNA = ApoA2 pre-mRNA splicing, RT-PCR; assay type: cell-based; conditions: MDA-MB-231 cells, endogenous gene
Method: Long stretches of TG repeats are found in exon 9 and intron 9 of Lamp2 gene. A shorter stretch is located in intron 10. […] RT-PCR analysis was performed to test if ALT-59 treatment affects LAMP2 alternative splicing. MDA-MB-231 cells were cultured as described above and treated with DMSO or 6 μM ALT-59. Total RNA was extracted using the RNeasy Mini Kit (Qiagen) and equal amount of RNA was reverse transcribed using the SuperScript III First-Strand Synthesis System (Invitrogen). PCR reactions were performed using forward primer located on exon 1 and a reverse primer located on exon 11. PCR samples were resolved in a 1.2% agarose gel and stained with ethidium bromide.
It has been reported that TDP-43 causes CFTR exon 9 skipping, ApoA2 exon 3 skipping, and POLDIP3 exon 3 inclusion. Additional experiments were performed to further confirm that TDP-43 is the target of ALT-59. RT-PCR analysis was performed as described above using the following primers for the three genes. PCR samples were analyzed by polyacrylamide gel electrophoresis and stained with ethidium bromide.

MAP2 = MAP2 expression, Western blot in U-87 MG cells; assay type: cell-based; conditions: 2 days
Method: (§1) U-87 MG and T98G cells were maintained at 37° C. in a CO2 incubator in Dulbecco's Modified Eagle's Medium (DMEM) supplemented with 10% fetal bovine serum (FBS) and 1% of penicillin/streptomycin (Invitrogen). Cells were treated with DMSO, 3 μM, or 6 μM ALT-59 for 2 days and subjected to Western blotting analysis using the indicated antibodies. Protein bands were quantified using the ImageJ software.

TDP43-His = molecular target: T1, TDP43-His (Homo sapiens, UniProt Q13148); experiment: Expression of histidine-tagged TDP-43 in E. coli whole cell lysates; assay type: cell-based; conditions: 60 μM ALT-59 with 2 μg/ml PMBN, 0.5 mM IPTG, Rosetta (DE3) cells, Coomassie stain
T1 construct: made in house; host or cells: E. coli Rosetta (DE3), vector pRETb/TDP43-His; protein not purified, read in whole cell lysate
T1 sequence (Q13148 whole entry): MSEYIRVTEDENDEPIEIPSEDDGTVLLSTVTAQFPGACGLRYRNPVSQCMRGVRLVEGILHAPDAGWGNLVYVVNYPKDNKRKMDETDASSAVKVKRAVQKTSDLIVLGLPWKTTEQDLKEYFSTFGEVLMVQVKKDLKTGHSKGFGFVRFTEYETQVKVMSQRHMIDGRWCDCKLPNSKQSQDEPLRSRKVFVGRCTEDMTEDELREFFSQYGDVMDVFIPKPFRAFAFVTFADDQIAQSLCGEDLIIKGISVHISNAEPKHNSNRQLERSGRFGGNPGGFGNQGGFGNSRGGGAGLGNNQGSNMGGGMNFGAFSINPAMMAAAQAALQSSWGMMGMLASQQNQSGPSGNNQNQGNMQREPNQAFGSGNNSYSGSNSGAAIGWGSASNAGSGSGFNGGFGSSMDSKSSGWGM
Method: Rosetta (DE3) cells were transformed with pRETb/TDP43-His according manufacture's instruction. After the culture from a single colony reached O.D 0.6 with shaking at 37° C. for 5 hours, it was split into six equal cultures and treated as indicated in FIG. 3. (Lane 1) un-induced blank; (Lane 2) 0.5 mM IPTG, 60 μM DMSO; (Lane 3) 0.5 mM IPTG, 60 μM ALT-59; (Lane 4) 0.5 mM IPTG, 2 μg/ml PMBN; (Lane 5) 0.5 mM IPTG, 2 μg/ml PMBN, 30 μM ALT-59; (Lane 6) 0.5 mM IPTG, 2 μg/ml PMBN, 60 μM ALT-59. Cells were cultured overnight at 25° C. on a shaker and then collected, sonicated in protein sample buffer and boiled before loading on a 10% SDS-PAGE gel. Protein were visualized by Coomassie Brilliant Blue stain.

His-Sumo-TDP43 = molecular target: T2, His-Sumo-TDP43 (Homo sapiens, UniProt Q13148); experiment: Binding of His-Sumo-TDP43 to TG12-biotin, streptavidin bead pull-down and Western blot
T2 construct: made in house; host or cells: E. coli Rosetta (DE3), vector pSumo/TDP43, Ni-NTA purified
T2 sequence (Q13148 whole entry): as above
Method: Additional experiments were performed to confirm the direct binding of ALT-59 to TDP-43. One microgram of purified His-Sumo-TDP43 was incubated with 1 μg TG12-biotin ([…]-biotin (SEQ ID NO: 1)) in binding buffer containing 20 mM HEPES, pH 7.5, 0.3% CHAPS, 150 mM NaCl, (Sigma-Aldrich), and protease inhibitor cocktail (Roche) for 4 hours on ice in the presence of carrier (50% Cremophor EL, 50% absolute ethanol) or 30 μM ALT-59 dissolved in carrier. Streptavidin magnetic beads (20 μl settled beads, GE Healthcare Life Sciences) were added to pull down the DNA-protein complex by rotating at 4° C. for 2 hours. After being washed 5 times with binding buffer, samples were boiled in protein sample buffer. In another experiment, DNA-protein complex bound to Streptavidin magnetic beads were washed and split into three parts, two of which were incubated with either carrier or ALT-59 for 4 hours with rotation at 4° C. to elute TDP-43 from TG12-biotin-streptavidin. The third part and elutes were mixed with protein sample buffer and boiled. Protein samples from the above experiments were loaded onto 4-20% Tris-glycine gel (Invitrogen) for fractionation. Western blotting was performed using anti-TDP-43 antibody (Proteintech Group).

Beta-secretase 1 (BACE1) = experiment: BACE1 protein level, Western blot in U-87 MG cells; assay type: cell-based; conditions: 2 days
Method: as §1

CFTR = CFTR localization, immunofluorescence microscopy, MDA-MB-231 cells; assay type: cell-based; conditions: 4 μM, 3 days
Method: MDA-MB-231 and U-87 MG cells were cultured on cover slips under the conditions as described above. Cells were treated with DMSO or 4 μM ALT-59 for 3 days. Primary human bronchial epithelial cells isolated from cystic fibrosis patient homozygous for Phe508del-CFTR (Lifeline Cell Technology) were cultured on cover slips in BronchiaLife Cell Culture Medium supplemented with BrochiaLife LifeFactors Kit (Lifeline Cell Technology) and maintained at 37° C. in a CO2 incubator. Cells were treated with DMSO, 4 μM ALT-59, 2 μM ALT-308, or 4 μM ALT-410 for 3 days.
Cells were fixed in 4% paraformaldehyde for 15 minutes and permeabilized in 0.1% Triton X-100 for 2 minutes. After being blocked in 5% BSA (Sigma-Aldrich), cells were incubated with anti-CFTR antibody (Alomone Labs) followed by Alexa Fluor 488 anti-rabbit secondary antibody. Reagents were buffered in GIBCO PBS (Phosphate-Buffered Saline). Images were taken using Carl Zeiss LSM 510 Laser Scanning Microscope. Parameters were set identical for all images.

CN(C)c1ccc(C2Nc3ccc4ccccc4c3C3=C2C(=O)CC(C)(C)C3)cc1Br (stereo not drawn) [ALT-59, 5-(3-bromo-4-(dimethylamino)phenyl)-2,2-dimethyl-2,3,5,6-tetrahydrobenzo[a]phenanthridin-4(1H)-one]
ApoA2 splicing (ApoA2 pre-mRNA): blocking ApoA2 splicing
increase of MAP2 expression (MAP2; 3 μM): 1.42 folds
increase of MAP2 expression (MAP2; 6 μM): 2.51 folds
TDP43-His protein expression (TDP43-His): increased protein expression
binding of TDP-43 to TG12 (His-Sumo-TDP43; 30 μM ALT-59 in carrier, 4 hours on ice): can block the binding of TDP-43 to TG12
elution of TDP-43 from the TDP43-TG12 complex (His-Sumo-TDP43; preformed DNA-protein complex on streptavidin beads, 4 hours at 4° C.): capable of displacing TG12 from the TDP43-TG12 complex
reduction of BACE1 protein level (Beta-secretase 1 (BACE1); 3 μM): 20%
reduction of BACE1 protein level (Beta-secretase 1 (BACE1); 6 μM): 50%
CFTR localization (CFTR): redistribution of CFTR from the perinuclear region to the plasma membrane
